The results in this text go back to US6613745B1, “Therapeutic molecules derived from snake venom” (National University of Singapore, priority 1997, dated 2003).

“Also recorded” adds a separate entry of the source. Peptide text beside a SMILES is read from it.

In this data set the test system is chick biventer muscle. The data set is described as follows: Chick biventral experiment: contractile (twitch) responses evoked by electrical field stimulation. Also noted: species or system Gallus domesticus.

As to `C[C@@H](O)[C@H](NC(=O)[C@@H]1CCCN1C(=O)[C@H](Cc1ccccc1)NC(=O)[C@@H]1CCCN1C(=O)[C@@H](N)CC(N)=O)C(=O)N[C@@H](Cc1c[nH]c2ccccc12)C(=O)N[C@@H](CCCNC(=N)N)C(=O)N[C@@H](CCCCN)C(=O)N[C@@H](CCCNC(=N)N)C(=O)N1CCC[C@H]1C(=O)NCC(=O)O` [synthesized peptide, Asn-Pro-Phe-Pro-Thr-Trp-Arg-Lys-Arg-Pro-Gly] (H-NPFPTWRKRPG-OH), where the note is “10 μg peptide added, EFS 25 V, 5 Hz×10s, 1 ms pulse width, every 100s, FIG. 1, listed as analgesic peptide”, the “contractile (twitch) response of chick biventer evoked by electrical field stimulation” value was “no change; also recorded: no effect”. Further, for the setting “10 μg peptide, concluded from FIG. 1”, the “neurotoxic effect on the neuromuscular junction” value is reported as “no neurotoxic effect”.
